This is an account of results in patent publication US9198423B2, “Active compound combinations” (BAYER INTELLECTUAL PROPERTY GMBH, priority 2011, dated 2015).

One test deals with Venturia inaequalis. As to the kind of experiment: Venturia test (apples)/preventive. Conditions: preventive spray, evaluated 10 days after inoculation. It counts as in vivo, Venturia inaequalis on apples. How it is done: Venturia Test (Apples)/Preventive [table] To produce a suitable preparation of active compound, 1 part by weight of active compound is mixed with the stated amounts of solvent and emulsifier, and the concentrate is diluted with water to the desired concentration. To test for preventive activity, young plants are sprayed with the preparation of active compound at the stated rate of application. After the spray coating has dried on, the plants are inoculated with an aqueous conidia suspension of the causal agent of apple scab (Venturia inaequalis) and then remain for 1 day in an incubation cabinet at approximately 20° C. and a relative atmospheric humidity of 100%. The plants are then placed in a greenhouse at approximately 21° C. and a relative atmospheric humidity of approximately 90%. The test is evaluated 10 days after the inoculation. 0% means an efficacy which corresponds to that of the untreated control, while an efficacy of 100% means that no disease is observed.

In the next test the test system is Alternaria solani. Kind of test: Alternaria test (tomatoes)/preventive. Type of test: in vivo, Alternaria solani on tomatoes. Conditions: preventive spray, evaluated 3 days after inoculation. As for the experimental part:
Alternaria Test (Tomatoes)/Preventive [table] To produce a suitable preparation of active compound, 1 part by weight of active compound is mixed with the stated amounts of solvent and emulsifier, and the concentrate is diluted with water to the desired concentration. To test for preventive activity, young plants are sprayed with the preparation of active compound at the stated rate of application. After the spray coating has dried on, the plants are inoculated with an aqueous spore suspension of Alternaria solani. The plants are then placed in an incubation cabinet at approximately 20° C. and a relative atmospheric humidity of 100%. The test is evaluated 3 days after the inoculation. 0% means an efficacy which corresponds to that of the untreated control while an efficacy of 100% means that no disease is observed.

In the case of `OC(Cc1ccccc1Cl)(Cn1nc[nH]c1=S)C1(Cl)CC1` (stereo not shown) [(A) Prothioconazole, Prothioconazole], the results for the “Efficacy in % found” value in the test on Venturia inaequalis (application rate 10 ppm a.i.) and with Alternaria solani (application rate 10 ppm a.i.) were 43% and 50%, respectively.

On to `CC(C)NC(=O)N1CC(=O)N(c2cc(Cl)cc(Cl)c2)C1=O` [(B) Iprodione, Iprodione], for which the “Efficacy in % found” value is 3% in the test with Venturia inaequalis (application rate 40 ppm a.i.) and 70% in the test with Alternaria solani (application rate 40 ppm a.i.).
